According to the supplement of paper PMC10307832:

Legend:
Test in all cases: relative viability (nuclei count vs DMSO), 5 days (fraction); higher = more cells survive
[1] = compound: CCOC1=CC=CC=C1N=NC2=C(NN(C2=O)C3=NC(=CS3)C4=CC=CC=C4)C [BAM7] + NC(=O)Nc1cc(-c2cccc(F)c2)sc1C(=O)N[C@H]1CCCNC1 [AZD7762] (partner 0.2 µM)
In short: (§1)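 The day after seeding in 1536-well plates, lung cancer cell lines were treated by pin tool with a single drug, or with a fixed anchor-drug dose together with five library-drug doses (not always all listed) in √10 steps. After 5 days, a combined fix-and-stain solution (final 0.05% Triton X-100, 1% formaldehyde, 1 ug/ml Hoechst) was added. Nuclei counted on 4× images gave relative viability as treated counts over vehicle counts, reported as the median of duplicate plates.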

[2] = compound: CCOC1=CC=CC=C1N=NC2=C(NN(C2=O)C3=NC(=CS3)C4=CC=CC=C4)C [BAM7] + Cc1cc(Nc2cc(N3CCN(C)CC3)nc(Sc3ccc(NC(=O)C4CC4)cc3)n2)n[nH]1 [Tozasertib] (partner 0.1 µM)
In short: as §1

[3] = compound: CCn1c(-c2nonc2N)nc2c(C#CC(C)(C)O)ncc(OC[C@H]3CCCNC3)c21 + N=C(N)NC(=N)NCCc1ccccc1 [Phenformin] (partner 250 µM)
In short: as §1

[4] = compound: CCOC1=CC=CC=C1N=NC2=C(NN(C2=O)C3=NC(=CS3)C4=CC=CC=C4)C [BAM7] + Nc1nc2[nH]cc(CCc3ccc(C(=O)N[C@@H](CCC(=O)O)C(=O)O)cc3)c2c(=O)[nH]1 [Pemetrexed] (partner 0.2 µM)
In short: as §1

Cell Line | relative viability ([1]; first compound 0.5 µM) | relative viability ([1]; first compound 5 µM) | relative viability ([1]; first compound 15.81 µM) | relative viability ([1]; first compound 50 µM) | relative viability ([2]; first compound 0.5 µM) | relative viability ([2]; first compound 5 µM) | relative viability ([2]; first compound 15.81 µM) | relative viability ([2]; first compound 50 µM) | relative viability ([3]; first compound 0.01 µM) | relative viability ([3]; first compound 0.03162 µM) | relative viability ([3]; first compound 0.1 µM) | relative viability ([3]; first compound 0.3162 µM) | relative viability ([3]; first compound 1 µM) | relative viability ([4]; first compound 0.5 µM) | relative viability ([4]; first compound 5 µM) | relative viability ([4]; first compound 15.81 µM) | relative viability ([4]; first compound 50 µM)
NCI-H727 | 0.586 | 0.675 | 0.678 | 0.41 | 0.496 | 0.599 | 0.555 | 0.52 | 0.468 | 0.461 | 0.618 | 0.515 | 0.502 | – | – | – | –
NCI-H1563 | – | – | – | – | – | – | – | – | 0.623 | 0.618 | 0.701 | 0.63 | 0.649 | 0.778 | 0.853 | 0.813 | 0.633
NCI-H1623 | – | – | – | – | 0.389 | 0.367 | 0.357 | 0.371 | 0.604 | 0.526 | 0.6 | 0.56 | 0.473 | – | – | – | –
NCI-H1648 | 0.489 | 0.775 | 0.633 | 0.921 | 0.565 | 0.356 | – | 0.434 | – | – | – | – | – | 0.874 | 0.88 | 0.677 | 1.03
NCI-H1650 | – | – | – | – | 0.335 | 0.305 | 0.28 | 0.314 | 0.457 | 0.478 | 0.404 | 0.277 | 0.303 | 0.336 | 0.399 | 0.399 | 0.354
NCI-H1703 | 0.14 | 0.115 | 0.122 | 0.132 | – | – | – | – | – | – | – | – | – | – | – | – | –
NCI-H1792 | 0.681 | 0.65 | 0.605 | 0.633 | – | – | – | – | 0.203 | 0.291 | 0.258 | 0.262 | 0.299 | 0.943 | 1.13 | 0.707 | 0.816
NCI-H2009 | – | – | – | – | 0.832 | 0.763 | 0.62 | 0.608 | 0.473 | 0.491 | 0.519 | 0.458 | 0.452 | 1.03 | 1.06 | 1.03 | 1.01
NCI-H2023 | – | – | – | – | 0.234 | 0.161 | 0.125 | 0.177 | 0.4 | 0.409 | 0.412 | 0.3 | 0.34 | 0.229 | 0.248 | 0.174 | 0.286
NCI-H2228 | – | – | – | – | 0.239 | 0.23 | 0.208 | 0.286 | 0.363 | 0.36 | 0.298 | 0.277 | 0.204 | 0.355 | 0.341 | 0.316 | 0.351
SK-LU-1 | – | – | – | – | 0.332 | 0.449 | 0.341 | 0.323 | 0.552 | 0.575 | 0.455 | 0.48 | 0.537 | 0.906 | 1.07 | 0.905 | 0.99
SK-MES-1 | – | – | – | – | 1.03 | 0.907 | 0.752 | 0.772 | 0.654 | 0.642 | 0.66 | 0.617 | 0.673 | 0.919 | 0.906 | 0.814 | 0.866
SW 1573 | – | – | – | – | 0.213 | 0.174 | 0.165 | 0.191 | 0.344 | 0.274 | 0.24 | 0.209 | 0.194 | 0.843 | 0.822 | 0.801 | 0.823
